According to PubChem BioAssay AID1918947 (Molecular Pharmacology Branch, DTP, NCI, 2023):

System: A498 complex spheroid viability
Test: Anticancer human tumor A498 cell line growth inhibition;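 also: spheroids exposed to agents for seven days before readout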;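 as to viability, T/C: 100% = DMSO vehicle-treated spheroids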
Details: for IC50: curve of first compound; for viability, T/C: stronger effect = lower value
Method in brief: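 Drug combinations with the LSD1 inhibitor iadademstat tested on tumor cells co-cultured as spheroids with endothelial cells and mesenchymal stem cells. Concentrations descended in half-log increments from clinical Cmax or 10 microM.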

Nc1ncn(C2CC(O)C(CO)O2)c(=O)n1 (stereo not given) + NC1CCC(NC2CC2c2ccccc2)CC1
IC50 (second compound 0.1 µM): 177 nM
IC50 (second compound 0.316 µM): 279 nM
IC50 (second compound 1 µM): 218 nM
IC50 (second compound 3.16 µM): 195 nM
IC50 (second compound 10 µM): 224 nM
viability, T/C (second compound 0.1 µM, first compound 0.00316 µM): 89.7%
viability, T/C (second compound 0.1 µM, first compound 0.01 µM): 88.5%
viability, T/C (second compound 0.1 µM, first compound 0.0316 µM): 88.5%
viability, T/C (second compound 0.1 µM, first compound 0.1 µM): 60.7%
viability, T/C (second compound 0.1 µM, first compound 0.316 µM): 40%
viability, T/C (second compound 0.1 µM, first compound 1 µM): 36.7%
viability, T/C (second compound 0.316 µM, first compound 0.00316 µM): 93.1%
viability, T/C (second compound 0.316 µM, first compound 0.01 µM): 95.7%
viability, T/C (second compound 0.316 µM, first compound 0.0316 µM): 90.7%
viability, T/C (second compound 0.316 µM, first compound 0.1 µM): 72.9%
viability, T/C (second compound 0.316 µM, first compound 0.316 µM): 47.3%
viability, T/C (second compound 0.316 µM, first compound 1 µM): 40.5%
viability, T/C (second compound 1 µM, first compound 0.00316 µM): 89.2%
viability, T/C (second compound 1 µM, first compound 0.01 µM): 89.7%
viability, T/C (second compound 1 µM, first compound 0.0316 µM): 89.2%
viability, T/C (second compound 1 µM, first compound 0.1 µM): 62.4%
viability, T/C (second compound 1 µM, first compound 0.316 µM): 46.4%
viability, T/C (second compound 1 µM, first compound 1 µM): 34.9%
viability, T/C (second compound 3.16 µM, first compound 0.00316 µM): 82.5%
viability, T/C (second compound 3.16 µM, first compound 0.01 µM): 88.4%
viability, T/C (second compound 3.16 µM, first compound 0.0316 µM): 78.4%
viability, T/C (second compound 3.16 µM, first compound 0.1 µM): 66.6%
viability, T/C (second compound 3.16 µM, first compound 0.316 µM): 38.1%
viability, T/C (second compound 3.16 µM, first compound 1 µM): 29.3%
viability, T/C (second compound 10 µM, first compound 0.00316 µM): 78%
viability, T/C (second compound 10 µM, first compound 0.01 µM): 78.2%
viability, T/C (second compound 10 µM, first compound 0.0316 µM): 79.9%
viability, T/C (second compound 10 µM, first compound 0.1 µM): 68.4%
viability, T/C (second compound 10 µM, first compound 0.316 µM): 42.2%
viability, T/C (second compound 10 µM, first compound 1 µM): 31.9%
